Experiments:
[1] = molecular target: T1, Her2 exon 20 YVMA insertion (A775_G776ins YVMA) (Homo sapiens, UniProt P04626, INS775YVMA); test: Ba/F3-Her2 Exon20 YVMA cell anti-proliferation assay (MTS); format: cell-based; conditions: Ba/F3-Her2 Exon20 YVMA cells, 72 h, MTS signal
T1 construct: expressed in transfected cells; host or cells: Ba/F3 (murine pro-B) cells, lentiviral transduction with pLVX-IRES puro
Description: A compound's ability in selectively inhibiting Her2 exon 20 YVMA insertion mutations can be assessed using Ba/F3 cells, a murine pro-B cell line, which have been transduced with Her2 Exon20 YVMA insertions. An expression vector, pLVX-IRES puro (Clontech) coding for human EGFR exon 20 insertions YVMA (A775_G776ins YVMA), was transfected into HEK293 cells by the Trans-Lentiviral ORF Packaging System (Thermo Scientific), to produce virus encoding EGFR exon 20 insertions. Ba/F3 (DSMZ) cells maintained in RPM11640 medium supplemented with 10% fetal bovine serum, 200 pM L-glutamine/200 μg/mL penicillin/200 μg/mL streptomycin (Life Technology) and 10 ng/mL IL-3 (R&D system), were infected by EGFR Exon20 virus and subsequently selected by puromycin (Life Technology) selection and IL-3 depletion. Ba/F3 cells expressing Her2 Exon20 YVMA insertions (named Ba/F3-Her2 Exon20 YVMA) can proliferate in the absence of IL-3. The anti-proliferative activity of compounds was determined as follows: BaF3-Her2 Exon20 YVMA cells seeded in 96 well plates (2500 cells/well) were treated with test compound (dissolved in DMSO) at a series of concentrations (4-fold dilution, top concentration: 10,000 nM). The plates were incubated for 72 h in a 37° C. incubator with 5% CO2, and the number of viable cells in each well were measured indirectly by CellTiter 96® Aqueous One Solution Cell Proliferation Assay (Promega; this assay is a colorimetric method for determining the number of viable cells through measurement of their metabolic activity by detection of enzymatic conversion of tetrazolium salts into blue formazan derivatives). Reagent (20 pL) was added into each well, and the plates were returned to the incubator for 2 h. The absorbance in each well was then measured at 490 nm using an Envision plate reader (Perkin Elmer). IC50 values were calculated by determining the concentration of compound required to decrease the MTS signal by 50% comparing to the DMSO control in best-fit curves using Microsoft XLfit software or Accelrys Pipeline Pilot.

[2] = molecular target: EGFR exon 20 NPG insertion (H773_V774insNPG) (Homo sapiens, UniProt P00533, cells depend on it, form not given); test: Ba/F3-EGFR-Exon20-NPG cell anti-proliferation assay (MTS, CellTiter 96 AQueous One); format: cell-based; conditions: 72 h, MTS signal
Chain of EGFR exon 20 NPG insertion (H773_V774insNPG) (P00533 with tags, fused parts or gaps INS772GNP, form open): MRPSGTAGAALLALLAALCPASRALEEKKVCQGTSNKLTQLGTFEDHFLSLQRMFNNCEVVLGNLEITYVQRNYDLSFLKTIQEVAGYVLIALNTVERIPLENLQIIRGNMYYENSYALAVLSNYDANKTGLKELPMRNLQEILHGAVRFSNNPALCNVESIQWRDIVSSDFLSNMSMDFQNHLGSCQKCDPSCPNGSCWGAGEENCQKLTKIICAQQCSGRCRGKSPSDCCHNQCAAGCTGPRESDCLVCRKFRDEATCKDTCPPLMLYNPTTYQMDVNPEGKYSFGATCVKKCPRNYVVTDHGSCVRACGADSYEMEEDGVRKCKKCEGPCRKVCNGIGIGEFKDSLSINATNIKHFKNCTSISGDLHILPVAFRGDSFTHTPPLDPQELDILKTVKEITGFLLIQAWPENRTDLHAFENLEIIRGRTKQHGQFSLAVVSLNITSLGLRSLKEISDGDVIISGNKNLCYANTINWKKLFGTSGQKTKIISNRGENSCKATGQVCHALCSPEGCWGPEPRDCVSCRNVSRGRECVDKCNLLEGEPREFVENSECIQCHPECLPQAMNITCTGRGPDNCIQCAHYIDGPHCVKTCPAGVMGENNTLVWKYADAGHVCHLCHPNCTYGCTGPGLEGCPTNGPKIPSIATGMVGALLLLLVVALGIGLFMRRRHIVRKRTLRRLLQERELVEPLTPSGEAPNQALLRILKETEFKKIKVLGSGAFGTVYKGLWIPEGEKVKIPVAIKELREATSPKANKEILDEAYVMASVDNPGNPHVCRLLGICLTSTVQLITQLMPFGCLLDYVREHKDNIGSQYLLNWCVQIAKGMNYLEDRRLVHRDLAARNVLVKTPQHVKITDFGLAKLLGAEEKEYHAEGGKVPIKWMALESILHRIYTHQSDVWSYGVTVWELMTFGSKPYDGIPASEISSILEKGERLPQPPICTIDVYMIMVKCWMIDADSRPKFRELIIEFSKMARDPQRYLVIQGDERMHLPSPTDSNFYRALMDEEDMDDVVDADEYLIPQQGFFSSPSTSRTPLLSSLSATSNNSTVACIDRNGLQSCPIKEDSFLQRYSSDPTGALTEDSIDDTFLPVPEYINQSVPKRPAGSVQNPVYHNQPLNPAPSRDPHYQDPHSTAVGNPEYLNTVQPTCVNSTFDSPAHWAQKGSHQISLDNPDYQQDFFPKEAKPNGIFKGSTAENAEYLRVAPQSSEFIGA
Description: A compound's ability in selectively inhibiting EGFR exon 20 insertion mutations can be assessed using Ba/F3 cells, a murine pro-B cell line, which have been transduced with EGFR exon 20 insertions. An expression vector, pLVX-IRES puro (Clontech) coding for human EGFR exon 20 insertions NPG (H773_V774insNPG) or ASV (V769_D770insASV), was transfected into HEK293 cells by the Trans-Lentiviral ORF Packaging System (Thermo Scientific), to produce virus encoding EGFR exon 20 insertions. Ba/F3 (DSMZ) cells maintained in RPM11640 medium supplemented with 10% fetal bovine serum, 200 pM L-glutamine/200 µg/mL penicillin/200 µg/mL streptomycin (Life Technology) and 10 ng/mL IL-3 (R&D system), were infected by EGFR Exon20 virus and subsequently selected by puromycin (Life Technology) selection and IL-3 depletion. Ba/F3 cells expressing EGFR exon 20 insertions (named Ba/F3-EGFR-Exon20-NPG or Ba/F3-EGFR-Exon20-ASV) can proliferate in the absence of IL-3. The anti-proliferative activity of compounds were determined as follows: BaF3-EGFR-Exon20 cells (NPG or ASV) seeded in 96 well plates (2500 cells/well) were treated with test compound (dissolved in DMSO) at a series of concentrations (4-fold dilution, top concentration: 10,000 nM). The plates were incubated for 72 h in a 37° C. incubator with 5% CO2, and the number of viable cells in each well were measured indirectly by CellTiter 96® Aqueous One Solution Cell Proliferation Assay (Promega) This assay is a colorimetric method for determining the number of viable cells through measurement of their metabolic activity by detection of enzymatic conversion of tetrazolium salts into blue formazan derivatives. Reagent (20 pL) was added into each well, and the plates were returned to the incubator for 2 h. The absorbance in each well was then measured at 490 nm using an Envision plate reader (Perkin Elmer). IC50 values were calculated by determining the concentration of compound required to decrease the MTS signal by 50% comparing to the DMSO control in best-fit curves using Microsoft XLfit software or Accelrys Pipeline Pilot.

T1 sequence (P04626 with tags, fused parts or gaps INS775YVMA): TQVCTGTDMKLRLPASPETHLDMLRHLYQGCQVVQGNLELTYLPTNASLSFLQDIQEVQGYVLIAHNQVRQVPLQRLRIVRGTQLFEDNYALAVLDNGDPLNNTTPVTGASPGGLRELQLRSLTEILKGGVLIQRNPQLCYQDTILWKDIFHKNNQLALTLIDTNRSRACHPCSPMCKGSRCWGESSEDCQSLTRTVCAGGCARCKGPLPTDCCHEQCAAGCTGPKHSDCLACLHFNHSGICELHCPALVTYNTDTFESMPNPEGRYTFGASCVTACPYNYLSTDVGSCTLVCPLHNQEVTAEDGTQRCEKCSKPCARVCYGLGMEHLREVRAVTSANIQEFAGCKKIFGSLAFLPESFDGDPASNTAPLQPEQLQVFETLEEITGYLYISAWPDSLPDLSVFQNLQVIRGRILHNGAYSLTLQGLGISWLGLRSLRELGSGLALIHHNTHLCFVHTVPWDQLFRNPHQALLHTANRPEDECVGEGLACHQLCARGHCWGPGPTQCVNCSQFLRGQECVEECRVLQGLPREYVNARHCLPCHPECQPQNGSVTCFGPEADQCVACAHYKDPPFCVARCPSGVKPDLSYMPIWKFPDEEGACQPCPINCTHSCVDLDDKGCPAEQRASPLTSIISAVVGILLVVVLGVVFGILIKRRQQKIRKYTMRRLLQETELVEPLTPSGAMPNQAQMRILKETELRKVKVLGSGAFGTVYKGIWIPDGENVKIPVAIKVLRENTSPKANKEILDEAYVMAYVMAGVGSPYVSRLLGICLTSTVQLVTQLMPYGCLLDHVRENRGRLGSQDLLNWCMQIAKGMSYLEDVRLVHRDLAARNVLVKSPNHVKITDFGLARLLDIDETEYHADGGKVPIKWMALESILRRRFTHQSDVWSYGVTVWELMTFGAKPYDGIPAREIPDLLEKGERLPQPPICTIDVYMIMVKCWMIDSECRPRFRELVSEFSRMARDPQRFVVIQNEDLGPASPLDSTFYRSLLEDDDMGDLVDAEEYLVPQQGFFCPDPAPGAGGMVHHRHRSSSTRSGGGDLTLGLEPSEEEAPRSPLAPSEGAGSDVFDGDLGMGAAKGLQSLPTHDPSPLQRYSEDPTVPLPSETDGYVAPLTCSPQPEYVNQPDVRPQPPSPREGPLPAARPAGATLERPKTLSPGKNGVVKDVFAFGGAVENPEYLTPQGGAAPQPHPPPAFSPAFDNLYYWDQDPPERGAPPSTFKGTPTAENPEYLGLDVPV

IC50 [1] [nM]	IC50 [2] [nM]	Structure (SMILES)
< 100	–	C=CC(=O)Nc1cc(Nc2nccc(-c3c4n(c5ccccc35)CC3OC(C)(C)OC3C4)n2)c(OC)cc1N(C)CCN(C)C (stereo not drawn) [Example 4, N-(5-((4-(cis-2,2-dimethyl-3a,4,11,11a-tetrahydro-[1,3]dioxolo[4′,5′:4,5]pyrido[1,2-a]indol-10-yl)pyrimidin-2-yl)amino)-2-((2-(dimethylamino)ethyl)(methyl)amino)-4-methoxyphenyl)acrylamide]
100 to 500	–	C=CC(=O)Nc1cc(Nc2nccc(-c3c4n(c5ccccc35)CCCC4)n2)c(OC)cc1N(C)CCN(C)C [Example 5, N-(2-((2-(dimethylamino)ethyl)(methyl)amino)-4-methoxy-5-((4-(6,7,8,9-tetrahydropyrido[1,2-a]indol-10-yl)pyrimidin-2-yl)amino)phenyl)acrylamide]
100 to 500	–	C=CC(=O)Nc1cc(Nc2nccc(-c3c4n(c5ccccc35)CC(O)C(O)C4)n2)c(OC)cc1N(C)CCN(C)C (stereo not drawn) [Example 6, N-(5-((4-(cis-7,8-dihydroxy-6,7,8,9-tetrahydropyrido[1,2-a]indol-10-yl)pyrimidin-2-yl)amino)-2-((2-(dimethylamino)ethyl)(methyl)amino)-4-methoxyphenyl)acrylamide]
100 to 500	–	C=CC(=O)Nc1cc(Nc2nccc(-c3c4n(c5ccccc35)CC(OC)CC4)n2)c(OC)cc1N(C)CCN(C)C (stereo not shown) [Example 7, N-(2-((2-(dimethylamino)ethyl)(methyl)amino)-4-methoxy-5-((4-(7-methoxy-6,7,8,9-tetrahydropyrido[1,2-a]indol-10-yl)pyrimidin-2-yl)amino)phenyl)acrylamide]
< 100	–	C=CC(=O)Nc1cc(Nc2nccc(-n3c4c(c5ccccc53)CC(O)CC4)n2)c(OC)cc1N(C)CCN(C)C (stereo not shown) [Example 10, N-(2-((2-(dimethylamino)ethyl)(methyl)amino)-5-((4-(3-hydroxy-1,2,3,4-tetrahydro-9H-carbazol-9-yl)pyrimidin-2-yl)amino)-4-methoxyphenyl)acrylamide]

Further lines, the compound ahead of its results:

Structure (SMILES)	IC50 [1] [nM]	IC50 [2] [nM]
C=CC(=O)Nc1cc(Nc2nccc(-c3c4n(c5ccccc35)CCOC4)n2)c(OC)cc1N(C)CCN(C)C [Example 1, N-(5-((4-(3,4-dihydro-1H-[1,4]oxazino[4,3-a]indol-10-yl)pyrimidin-2-yl)amino)-2-((2-(dimethylamino)ethyl)(methyl)amino)-4-methoxyphenyl)acrylamide]	100 to 500	< 100
C=CC(=O)Nc1cc(Nc2nccc(-c3c4n(c5ccccc35)CCN(C)C4=O)n2)c(OC)cc1N(C)CCN(C)C [Example 2, N-(2-((2-(dimethylamino)ethyl)(methyl)amino)-4-methoxy-5-((4-(2-methyl-1-oxo-1,2,3,4-tetrahydropyrazino[1,2-a]indol-10-yl)pyrimidin-2-yl)amino)phenyl)acrylamide]	> 1000	–
C=CC(=O)Nc1cc(Nc2nccc(-c3c4n(c5ccccc35)CC(O)CC4)n2)c(OC)cc1N(C)CCN(C)C (stereo not shown) [Example 3, N-(2-((2-(dimethylamino)ethyl)(methyl)amino)-5-((4-(7-hydroxy-6,7,8,9-tetrahydropyrido[1,2-a]indol-10-yl)pyrimidin-2-yl)amino)-4-methoxyphenyl)acrylamide]	100 to 500	< 100

Reference: patent US20210323976A1, “HETEROARYL COMPOUNDS FOR KINASE INHIBITION” (ARIAD Pharmaceuticals, Inc., priority 2015, published 2021)
